According to patent US9301999B2 (priority 2009, dated 2016):
Values joined by “and” are separate entries in the source; they are usually repeats but may differ in a detail not shown here. Equal values may be shown once. “Also recorded” adds a separate entry of the source. Where no end group is shown, it is not given here.

Tests used:
anti-rPA serum IgG = system: anti-rPA serum IgG; set-up: species or system C3H/HeN female mice; conditions: mouse, in vivo
anthrax lethal toxin = system: anthrax lethal toxin; set-up: species or system C3H/HeN female mice; conditions: mouse, in vivo
MC/9 mast cells = assay type: cell-based, murine; set-up: MCD10: concentration of peptide necessary to induce degranulation of 10% of mast cells: unit not given here
anti-WNV IgG = assay type: in vivo, Female BALB/c mice; conditions: nasal, days 0, 7 and 21, WNV antigen 1 μg + 0.25 or 1.25 nmoles peptide; ANOVA p<0.05
anti-rPA IgG = system: anti-rPA IgG; set-up: species or system female C3H/HeN mice; conditions: mouse, in vivo
anti-PA IgG = system: anti-PA IgG; set-up: species or system Female C3H/HeN mice; conditions: mouse, in vivo

| Substance | serum anti-PA IgG geometric means titers (GMT), adjuvant activity (anti-rPA serum IgG) | lethal toxin neutralizing antibody response in serum (anthrax lethal toxin) | % MC/9 Degranulation (MC/9 mast cells) | % Mast Cell Degranulation (MC/9 mast cells) | MCD10: concentration of peptide necessary to induce degranulation of 10% of mast cells (MC/9 mast cells) | mast cell degranulation (β-hexosaminidase released into the culture medium) (MC/9 mast cells) | EC50 (MC/9 mast cells; read-out: MCD50: concentration of peptide necessary to induce degranulation of 50% of mast cells) | Anti-WNV IgG titers in sera on day 28, versus antigen alone (anti-WNV IgG) | serum anti-rPA IgG titers, difference between the -OH and -NH2 forms (anti-rPA IgG) | serum anti-rPA IgG titer versus mice immunized with rPA alone (anti-rPA IgG) | adjuvant activity as determined by serum anti-PA IgG endpoint titers (anti-PA IgG) |
| --- | --- | --- | --- | --- | --- | --- | --- | --- | --- | --- | --- |
| INLKALAALAKALL [Mastoparan 7, INLKALAALAKALL—NH2, reference compound] | significantly increased | neutralized anthrax lethal toxin; also recorded: significantly increased versus all other groups | 50.25% and 80.20% | 72.33% and 54.35% and 39.12% | 6.31 | induced mast cell degranulation | 18.1 µM | significantly greater | no significant difference |  |  |
| INLKALAALAKKIL-NH2 [Mastoparan] | significantly increased | neutralized anthrax lethal toxin; also recorded: significantly increased versus all other groups | 66.60% |  | 33.07 | induced mast cell degranulation |  |  |  | significantly greater | provided adjuvant activity |
| INLKAKAALAKKLL-OH [Mastoparan 17] | did not provide detectable adjuvant activity | did not induce lethal toxin neutralizing responses greater than those detected in mice immunized with rPA alone | 0% |  |  |  |  |  |  |  | did not provide adjuvant activity |
